Test results published in patent publication US4374841A, “Pyridoxine derivatives, and use in therapeutics” (S. A. Labaz N.V., priority 1980, dated 1983).
Where a name gives a salt, the structure may show the parent alone. Read-outs that look alike come from different tables or passages of the source.

Tests used:
anaesthetized dog [1] = test: Reserpine-like properties (cardiac frequency and contractility of the myocardium); type: in vivo; conditions: Canis lupus familiaris, 1 mg/kg, intravenous, anaesthetized dog
Description: C. Reserpine-like properties
the increase in cardiac frequency
the increase of (dP/dt) at its maximum, i.e. the increase of the maximum of the derivative of the left ventricular pressure in relation to time.
This derivative thus represented an index of contractility.

mice = test: Central depressant properties (passage of mice through a light ray); type: in vivo; conditions: intragastric, 30 minutes after administration, recorded over 15 minutes, dose with depressant action in 50% of the animals; for ED50: Mus musculus, po, 0.5 h, read-out: AD50 (the source's name)
Protocol: D. Central depressant properties
Thirty minutes after the intragastric administration of a dose of the compound to be studied, batches of mice were placed in a container through which a ray of light was projected. By means of a photoelectric cell, a record was made of the number of animals passing through the light ray over a period of 15 minutes. The same test was performed with control animals.
The AD50 was then calculated i.e. the dose of the compound under study which provoked a depressant action in 50% of the animals.

β-receptors = test: Antiadrenergic properties: anti-β effect (reduction of epinephrine-accelerated heart-rate); type: in vivo; conditions: intravenous, anaesthetized atropinized dog
Protocol: (§1) The purpose of this test was to determine the capacity of the compounds under study to reduce epinephrine-increased blood-pressure (anti-α effect) and epinephrine-accelerated heart-rate (anti-β effect) in the dog previously anaesthetized with pentobarbital (30 mg/kg) and atropinized (1 mg/kg).
The percentage of reduction of the epinephrine-induced acceleration of heart-rate obtained by means of the compounds under study in comparison with the tachycardia previously measured (about 70 beats) was then registered.
(§2) In both cases, the results were expressed as follows: […]
(§3) + for a <50%-reduction of the increase in pressure or cardiac frequency
(§4) ++ for a ≥50-reduction of the increase in pressure or cardiac frequency
(§5) +++ for the almost complete supression of the increase in pressure or cardiac frequency.

α-receptors = test: Antiadrenergic properties: anti-α effect (reduction of epinephrine-increased blood-pressure); type: in vivo, dog; conditions: intravenous; for Anti-α effect: anaesthetized atropinized dog, epinephrine
Protocol: as §1
After that, the dose of epinephrine so determined was administered followed by a dose, by intravenous route, of the compound to be studied. The percentage of reduction of hypertension produced by the compound under study in comparison with the hypertension previously obtained (about 100 mm.Hg) was then registered.
as §2, §3, §4, §5

anaesthetized dog [2] = test: Hypotension in the anaesthetized dog; type: in vivo; conditions: intravenous
Protocol: (a) Hypotension in the anaesthetized dog
The hypotensive effect was determined for at least one hour after the intravenous injection of a dose of the compound under study in the dog previously anaesthetized with pentobarbital (30 mg/kg) and atropinized (1 mg/kg).
Arterial pression was registered on a femoral artery.
The results were expressed as follows: […]
++ for a lasting reduction of about 30% in arterial pressure
+ for a short-lived reduction of about 20% in arterial pressure.

[3] = (dP/dt) maximum, read-out: increase in the contractility of the myocardium
[4] = read-out: increase in cardiac frequency

Cc1ccc(C(C)C)c(OCCNCC(O)COc2c(C)ncc(CO)c2CO)c1 (stereo not drawn) [L, 4,5-Dihydroxymethyl-3-[2-hydroxy-3-(2-isopropyl-5-methyl-phenoxyethylamino)-propoxy]-2-methyl-pyridine]
change in vivo at 1 mg/kg (anaesthetized dog [1]; [3]): 10 to 30%
change in vivo at 1 mg/kg (anaesthetized dog [1]; [4]): 10 to 30%
ED50 (mice): 40 mg/kg
Anti-β effect (β-receptors; 10 mg/kg): ++ (for a ≥50-reduction of the increase in pressure or cardiac frequency)
Anti-α effect (α-receptors; 10 mg/kg): +++

4,5-Dihydroxymethyl-3-[2-hydroxy-3-(3-methyl-phenoxyethylamino)-propoxy]-2- methyl-pyridine
Anti-β effect (β-receptors; 7.5 mg/kg): + (for a <50%-reduction of the increase in pressure or cardiac frequency)
Decrease in arterial pressure (anaesthetized dog [2]; 10 mg/kg): + (for a short-lived reduction of about 20% in arterial pressure)
Anti-α effect (α-receptors; 7.5 mg/kg): +++

Cc1ncc(CO)c(CO)c1OCC(O)CNCCOc1ccccc1C(C)C (stereo not drawn) [P, 4,5-Dihydroxymethyl-3-[2-hydroxy-3-(2-isopropyl-phenoxyethylamino)-propoxy]-2-methyl-pyridine]
change in vivo at 1 mg/kg (anaesthetized dog [1]; [3]): 10 to 30%
change in vivo at 1 mg/kg (anaesthetized dog [1]; [4]): 10 to 30%
ED50 (mice): 42 mg/kg
Anti-β effect (β-receptors; 2 mg/kg): ++ (for a ≥50-reduction of the increase in pressure or cardiac frequency)
Anti-α effect (α-receptors; 2 mg/kg): +++

4,5-Dihydroxymethyl-3-[2-hydroxy-3-(2-phenoxy-2-methyl-ethylamino)-propoxy]-2-methyl-pyridine [J]
AD50 (mice): 47 mg/kg
Anti-α effect (α-receptors; 10 mg/kg): +++

CCCc1ccccc1OCCNCC(O)COc1c(C)ncc(CO)c1CO (stereo not drawn) [N, 4,5-Dihydroxymethyl-3-[2-hydroxy-3-(2-n-propyl-phenoxyethylamino)-propoxy]-2-methyl-pyridine]
ED50 (mice): 42 mg/kg
Anti-β effect (β-receptors; 7 mg/kg): ++ (for a ≥50-reduction of the increase in pressure or cardiac frequency)
Anti-α effect (α-receptors; 7 mg/kg): +++

Cc1ncc(CO)c(CO)c1OCC(O)CNCCOc1ccccc1C(C)C (stereo not drawn) [S, 4,5-Dihydroxymethyl-3-[2-hydroxy-3-(2-isopropyl-phenoxyethylamino)-propoxy]-2-methyl-pyridine]
Anti-β effect (β-receptors; 10 mg/kg): ++ (for a ≥50-reduction of the increase in pressure or cardiac frequency)
Anti-α effect (α-receptors; 10 mg/kg): +++

Cc1ccc(OCCNCC(O)COc2c(C)ncc(CO)c2CO)cc1 (stereo not drawn) [Compound M, 4,5-Dihydroxymethyl-3-[2-hydroxy-3-(4-methyl-phenoxyethylamino)-propoxy]-2-methyl-pyridine]
change in vivo at 1 mg/kg (anaesthetized dog [1]; [3]): 10 to 30%
change in vivo at 1 mg/kg (anaesthetized dog [1]; [4]): 10 to 30%
Anti-β effect (β-receptors; 10 mg/kg): 0
Anti-α effect (α-receptors; 10 mg/kg): ++ (for a ≥50-reduction of the increase in pressure or cardiac frequency)

4,5-Dihydroxymethyl-3-[2-hydroxy-3-(3,5-dimethyl-phenoxyethylamino)-propoxy]-2-methyl-pyridine
Anti-β effect (β-receptors; 10 mg/kg): ++ (for a ≥50-reduction of the increase in pressure or cardiac frequency)
Anti-α effect (α-receptors; 10 mg/kg): ++ (for a ≥50-reduction of the increase in pressure or cardiac frequency)

CNC(=O)OCc1cnc(C)c(OCC(O)CNCCOc2ccccc2C)c1COC(=O)NC (stereo not drawn) [Q, 4,5-Di-(N-methylcarbamoyloxymethyl)-3-[2-hydroxy-3-(2-methyl-phenoxyethylamino)-propoxy]-2-methyl-pyridine]
Anti-β effect (β-receptors; 10 mg/kg): 0
Anti-α effect (α-receptors; 10 mg/kg): +++

4,5-Dihydroxymethyl-3-[3-(2-ethyl-phenoxyethylamino)-2-hydroxy-propoxy]-2-methyl-pyridine [F]
Anti-β effect (β-receptors; 10 mg/kg): ++ (for a ≥50-reduction of the increase in pressure or cardiac frequency)
Decrease in arterial pressure (anaesthetized dog [2]; 10 mg/kg): + (for a short-lived reduction of about 20% in arterial pressure)
Anti-α effect (α-receptors; 10 mg/kg): +++

COc1ccccc1OCCNCC(O)COc1c(C)ncc(CO)c1CO (stereo not drawn) [Compound U, 4,5-dihydroxymethyl-3-[2-hydroxy-3-(2-methoxy-phenoxyethylamino)-propoxy]-2-methyl-pyridine]
Anti-β effect (β-receptors; 10 mg/kg): ++ (for a ≥50-reduction of the increase in pressure or cardiac frequency)
Anti-α effect (α-receptors; 10 mg/kg): +++
prolonged α-antiadrenergic activity at a dose as low as (α-receptors; lowest active dose, dog, dihydrochloride): 0.5 mg/kg

4,5-Dihydroxymethyl-3-{2-hydroxy-3-[(3-phenyl-1-methyl-1-propyl)-amino]-propoxy}-2-methyl-pyridine
Anti-β effect (β-receptors; 10 mg/kg): ++ (for a ≥50-reduction of the increase in pressure or cardiac frequency)
Anti-α effect (α-receptors; 10 mg/kg): +++

Cc1ccc(OCCCNCC(O)COc2c(C)ncc(CO)c2CO)cc1C (stereo not drawn) [T, 4,5-Dihydroxymethyl-3-[2-hydroxy-3-(3,4-dimethyl-phenoxypropylamino)-propoxy]-2-methyl-pyridine]
Anti-β effect (β-receptors; 10 mg/kg): ++ (for a ≥50-reduction of the increase in pressure or cardiac frequency)
Anti-α effect (α-receptors; 10 mg/kg): ++ (for a ≥50-reduction of the increase in pressure or cardiac frequency)

4,5-Dihydroxymethyl-3-[3-(2,6-dimethyl-phenoxyethylamino)-2-hydroxy-propoxy]-2-methyl-pyridine [G]
Anti-β effect (β-receptors; 2 mg/kg): + (for a <50%-reduction of the increase in pressure or cardiac frequency)
Decrease in arterial pressure (anaesthetized dog [2]; 2 mg/kg): ++ (for a lasting reduction of about 30% in arterial pressure)
Anti-α effect (α-receptors; 2 mg/kg): +++

COc1ccc(CCNCC(O)COc2c(C)ncc(CO)c2CO)cc1OC.O=C(O)C(=O)O.O=C(O)C(=O)O (stereo not drawn) [X, 4,5-Dihydroxymethyl-3-[3-(3,4-dimethoxy-phenethylamino)-2-hydroxy-propoxy]-2-methyl-pyridine dioxalate]
Decrease in arterial pressure (anaesthetized dog [2]; 10 mg/kg): + (for a short-lived reduction of about 20% in arterial pressure)

4,5-Dihydroxymethyl-3-(2-hydroxy-3-phenoxyethylamino-propoxy)-2-methyl-pyridine [C]
Anti-β effect (β-receptors; 10 mg/kg): + (for a <50%-reduction of the increase in pressure or cardiac frequency)
Anti-α effect (α-receptors; 10 mg/kg): +++

Cc1ncc(CO)c(CO)c1OCC(O)CNCCOc1ccc(Cl)cc1 (stereo not drawn) [W, 4,5-Dihydroxymethyl-3-[2-hydroxy-3-(4-chloro-phenoxyethylamino)-propoxy]-2-methyl-pyridine]
Anti-β effect (β-receptors; 10 mg/kg): + (for a <50%-reduction of the increase in pressure or cardiac frequency)
Anti-α effect (α-receptors; 10 mg/kg): ++ (for a ≥50-reduction of the increase in pressure or cardiac frequency)

Cc1ncc(CO)c(CO)c1OCC(O)CNCCc1ccccc1 (stereo not drawn) [Z, 4,5-Dihydroxymethyl-3-(2-hydroxy-3-phenylethyl-amino-propoxy)-2-methyl-pyridine oxalate]
change in vivo at 1 mg/kg (anaesthetized dog [1]; [3]): 10 to 30%
change in vivo at 1 mg/kg (anaesthetized dog [1]; [4]): 10 to 30%
ED50 (mice): 33 mg/kg

CNC(=O)OCc1cnc(C)c(OCC(O)CNCCOc2ccccc2)c1COC(=O)NC (stereo not drawn) [R, 4,5-Di-(N-methylcarbamoyloxymethyl)-3-(2-hydroxy-3-phenoxyethylamino-propoxy)-2-methyl-pyridine]
Anti-β effect (β-receptors; 10 mg/kg): 0
Anti-α effect (α-receptors; 10 mg/kg): ++ (for a ≥50-reduction of the increase in pressure or cardiac frequency)

4,5-Dihydroxymethyl-3-[2-hydroxy-3-(2-methoxy-phenoxyethylamino)-propoxy]-2-methyl-pyridine
AD50 (mice): 33 mg/kg
Anti-β effect (β-receptors; 10 mg/kg): + (for a <50%-reduction of the increase in pressure or cardiac frequency)
Anti-α effect (α-receptors; 10 mg/kg): ++ (for a ≥50-reduction of the increase in pressure or cardiac frequency)

4,5-Dihydroxymethyl-3-[2-hydroxy-3-(2-phenyl-1-methyl-ethylamino)-propoxy]- 2-methyl-pyridine [B]
Anti-β effect (β-receptors; 3.5 mg/kg): +++
Decrease in arterial pressure (anaesthetized dog [2]; 3.5 mg/kg): + (for a short-lived reduction of about 20% in arterial pressure)
Anti-α effect (α-receptors; 3.5 mg/kg): +++
